From patent US8188291B2, “Heteroaryl-substituted carboxamides and their use as pharmaceuticals” (Sanofi-Aventis, priority 2006, dated 2012) come the findings set out here.

Counter-ions that a name gives are not always drawn. Some results are limits rather than exact numbers.

The test system of this experiment is eNOS promoter. Briefly: Activation of eNOS transcription (eNOS promoter-luciferase reporter gene assay). The class given is cell-based. The note with it: human endothelial cell line stably transfected with eNOS promoter-luciferase construct; 18 h incubation; determined graphically; read-out: EC50 values of transcription induction ratios (TIR). Here is the method: Determination of the Biological Activity A) Activation of eNOS Transcription
Activation of eNOS transcription was measured as described in detail by Li et al., “Activation of protein kinase C alpha and/or epsilon enhances transcription of the human endothelial nitric oxide synthase gene”, Mol. Pharmacol. 53 (1998) 630. Briefly, a 3.5 kB long fragment 5′ of the starting codon of the eNOS gene was cloned, sequenced and cloned in firefly luciferase expression plasmids to monitor activation of the eNOS promoter by reporter gene activity. A human endothelial cell line stable transfected and expressing this promoter-reporter construct was used for compound testing. Cells were incubated for 18 h with the compounds.
All compounds were dissolved in sterile dimethyl sulfoxide (DMSO). A final concentration of 0.5% DMSO in complete medium was allowed. Induction of reporter gene expression in these cells was measured using a standard luciferase assay system (Promega, Cat. No. E150) according to the manufacturer's instructions. Luciferase induction in cells incubated with compounds were compared to those incubated with solvent alone. The ratio of both activities (transcription induction ratio, TIR) was plotted as a function of compound concentration. Typically, TIR values started at low concentrations at a ratio of 1, indicating no compound effect, and extended up to a maximum TIR value TIR(max) which indicates the increase of the eNOS transcription. EC50 values of transcription induction ratios as a function of compound concentration were determined graphically.
For orientation: A reporter such as luciferase makes a cellular process visible.
`CC(C)(C)NC(=O)CSc1nc(-c2ccc(F)cc2)cs1` [Example 100, N-tert-Butyl-2-[4-(4-Fluoro-phenyl)-thiazol-2-ylsulfanyl]-acetamide]: the EC50 fell in the range of 500 to 5000 nM.
To `O=C(CCc1ccc(-c2ccc(OC(F)(F)F)cc2)s1)NCC1CC1` [Example 7, N-Cyclopropylmethyl-3-[5-(4-trifluoromethoxy-phenyl)-thiophen-2-yl]-propionamide] belongs less than 500 nM.
Regarding `O=C(COc1ccc(-c2ccccc2F)nc1)Nc1ccccn1` [Example 77, 2-[6-(2-Fluoro-phenyl)-pyridin-3-yloxy]-N-(pyridin-2-yl) -acetamide trifluoroacetic acid salt], the EC50 was less than 500 nM.
As to `O=C(COc1ccc(-c2ccccc2F)nc1)Nc1nccs1` [Example 78, 2-[6-(2-Fluoro-phenyl)-pyridin-3-yloxy]-N-(thiazol-2-yl) -acetamide trifluoroacetic acid salt], the EC50 is less than 500 nM.
To `Nc1nc(CCC(=O)N2CCCCC2)ccc1-c1ccccc1` [Example 79, 3-(6-Amino-5-phenyl-pyridin-2-yl)-1-(piperidin-1-yl) -propanone] belongs less than 500 nM; to `O=C(CCc1ccc(-c2ccc(OC(F)(F)F)cc2)s1)Nc1ccccc1` [Example 10, N-Phenyl-3-[5-(4-trifluoromethoxy-phenyl)-thiophen-2-yl]-propionamide], 500 to 5000 nM.
For `CC(=O)N1CCN(C(=O)CCc2ccc(-c3ccccc3F)s2)CC1` [Example 20, 1-(4-Acetyl-piperazin-1-yl)-3-[5-(2-fluoro-phenyl) -thiophen-2-yl]-propan-1-one] the value was 500 to 5000 nM.
To `O=C(CNc1nc(-c2ccc(F)cc2)cs1)N1CCCC1` [Example 69, 2-[4-(4-Fluoro-phenyl)-thiazol-2-ylamino]-1-(pyrrolidin-1-yl)-ethanone trifluoroacetic acid salt] belongs less than 500 nM; to `O=C(CSc1nc(-c2ccc(F)cc2)cs1)N1CCCC1` [Example 98, 2-[4-(4-Fluoro-phenyl)-thiazol-2-ylsulfanyl]-1-(pyrrolidin-1-yl)-ethanone], 500 to 5000 nM.
For the molecule `O=C(CNc1ccc(-c2ccccc2F)nc1)N1CCCCC1` [Example 89, 2-[6-(2-Fluoro-phenyl)-pyridin-3-ylamino]-1-(piperidin-1-yl)-ethanone trifluoroacetic acid salt], the EC50 was in the range of 500 to 5000 nM.
For `O=C(CNc1nc(-c2ccc(F)cc2)cs1)N1CCCCC1` [Example 67, 2-[4-(4-Fluoro-phenyl)-thiazol-2-ylamino]-1-(piperidin-1-yl)-ethanone trifluoroacetic acid salt] the value was 500 to 5000 nM; for `O=C(CCc1ccc(-c2ccc(OC(F)(F)F)cc2)s1)NCC(F)(F)F` [Example 8, N-(2,2,2-Trifluoro-ethyl)-3-[5-(4-trifluoromethoxy-phenyl) -thiophen-2-yl]-propionamide], 500 to 5000 nM.
